Measurements taken from US9181259B2 (LEO PHARMA A/S, priority 2012, dated 2015).
Counter-ions that a name gives are not always drawn.

Target: T1, NK1 receptor (Homo sapiens, UniProt P25103)
T1 construct: Measurement of NK1 Receptor Mediated Intracellular [Ca^2+]; Mobilization in U251 MG Cells Using FLIPR; endogenous in cells; host or cells: U251 MG cells
Assay: NK1 receptor mediated intracellular [Ca2+] mobilization in U251 MG cells using FLIPR
Format: cell-based
Settings: antagonist potency against Substance P (EC80), normalized to 100 nM Aprepitant, read-out: U251MG (FLIPR pIC50) (converted)
Experimental: Measurement of NK1 Receptor Mediated Intracellular [Ca^2+] Mobilization in U251 MG Cells Using FLIPR
U251 MG cells were seeded into black walled clear-bottom 384-well plates (Greiner Bio-One GmbH, Frickenhausen, Germany) at a density of 15,000 cells/well in 50 μl culture medium and cultured overnight in a 37° C. 5% CO2 incubator. The cells were then loaded with the calcium sensitive dye Fluo-4 (Invitrogen) at 1 μM in buffer, containing 0.04%
Pluronic F-127 (Sigma-Aldrich), and 2.5 mM probenecid (Sigma-Aldrich) for 60 min in a humidified atmosphere of 5% CO2. Thereafter, cells were washed three times in washing buffer containing 20 mM HEPES and 2.5 mM probenecid pH 7.3. Serial dilutions of test compounds in assay buffer containing 2% dimethyl sulfoxide (final concentration in the cell plate is 0.5% DMSO) and/or agonist were then automatically pipetted into each test well, and the peak fluorescence intensity was recorded (lex, 488 nm; lem, 540 nm) by the FLIPR instrument (Molecular Devices) for approximately 5 min. To measure antagonist potency, cell plates were first incubated with the test compound and intracellular fluorescence recorded for 5 minutes to check a potential agonist effect of the test compound. Cell plates were quickly removed from the FLIPR instrument and incubated for additional 10 minutes at 37° C. before being moved back to the FLIPR instrument for Substance P (EC80) addition. The response was measured as the peak relative fluorescence change after agonist addition.
The IC50 value is defined as the molar concentration of a test compound that produces a response midway between the fitted top and the fitted bottom. pIC50=−log IC50
Formula is listed as follows: Fit(% Effect calculated)=(A+((B−A)/(1+((C/X)^D)))) • A: bottom value • B: top value • C: […] • D: Hill slope coefficient
Ref: Sullivan E, Tucker E M, and Dale I L. Measurement of [Ca^2+] using the Fluorometric Imaging Plate Reader (FLIPR). Methods Mol Biol 114:125-133, 1999.
Compounds of the present invention were tested according to example 120.

T1 sequence (P25103 whole entry): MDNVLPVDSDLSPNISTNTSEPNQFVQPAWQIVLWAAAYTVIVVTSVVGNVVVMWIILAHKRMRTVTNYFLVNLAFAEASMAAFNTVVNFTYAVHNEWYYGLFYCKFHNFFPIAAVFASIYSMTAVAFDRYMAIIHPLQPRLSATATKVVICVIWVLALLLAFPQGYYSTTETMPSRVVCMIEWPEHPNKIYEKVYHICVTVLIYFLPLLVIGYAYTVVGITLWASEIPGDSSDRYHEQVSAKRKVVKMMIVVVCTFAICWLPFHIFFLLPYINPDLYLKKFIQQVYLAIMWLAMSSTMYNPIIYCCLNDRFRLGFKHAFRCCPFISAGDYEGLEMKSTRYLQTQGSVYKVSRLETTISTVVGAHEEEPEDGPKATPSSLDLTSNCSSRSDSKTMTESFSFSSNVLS

| SMILES | IC50 [nM] |
| --- | --- |
| Cc1ccccc1C1C2CCCN2CCN1C(=O)N(C)Cc1cc(C(F)(F)F)cc(C(F)(F)F)c1 (racemic) [Compound 24, N-{[3,5-bis(trifluoromethyl)phenyl]methyl}-N-methyl-1-(2-methylphenyl)-octahydropyrrolo[1,2-a]piperazine-2-carboxamide] | 1.35 |
| Cc1ccccc1C1C2CC(CCO)C(=O)N2CCN1C(=O)N(C)C(CCO)c1cc(C(F)(F)F)cc(C(F)(F)F)c1 (racemic) [Compound 33, N-{1-[3,5-bis(trifluoromethyl)phenyl]-3-hydroxypropyl}-7-(2-hydroxyethyl)-N-methyl-1-(2-methylphenyl)-6-oxo-octahydropyrrolo[1,2-a]piperazine-2-carboxamide] | 0.158 |
| Cc1ccccc1C1C2CC(CCO)(CCO)C(=O)N2CCN1C(=O)N(C)Cc1cc(C(F)(F)F)cc(C(F)(F)F)c1 (racemic) [Compound 42, N-{[3,5-bis(trifluoromethyl)phenyl]methyl}-7,7-bis(2-hydroxyethyl)-N-methyl-1-(2-methylphenyl)-6-oxo-octahydropyrrolo[1,2-a]piperazine-2-carboxamide] | 0.0955 |
| Cc1cc(C)cc(CN(C)C(=O)N2CCN3C(=O)CCC3C2c2ccccc2C)c1 (single isomer, unassigned) [Compound 2, N-[(3,5-dimethylphenyl)methyl]-N-methyl-1-(2-methylphenyl)-6-oxo-octahydropyrrolo[1,2-a]piperazine-2-carboxamide] | 77.6 |
| Cc1ccccc1C1C2CCC(=O)N2CCN1C(=O)N(C)Cc1cc(F)cc(C(F)(F)F)c1 (single isomer, unassigned) [Compound 4, N-{[3-fluoro-5-(trifluoromethyl)phenyl]methyl}-N-methyl-1-(2-methylphenyl)-6-oxo-octahydropyrrolo[1,2-a]piperazine-2-carboxamide] | 81.3 |
| Cc1ccccc1C1C2CCC(=O)N2CCN1C(=O)N(C)Cc1cccc(C(F)(F)F)c1 (single isomer, unassigned) [Compound 6, N-methyl-1-(2-methylphenyl)-6-oxo-N-{[3-(trifluoromethyl)phenyl]methyl}-Octahydropyrrolo[1,2-a]piperazine-2-carboxamide] | > 100 |
| COC(=O)C1(C)CC2C(c3ccccc3C)N(C(=O)N(C)Cc3cc(C(F)(F)F)cc(C(F)(F)F)c3)CCN2C1=O (single isomer, unassigned) [Compound 13, Methyl 2-({[3,5-bis(trifluoromethyl)phenyl]methyl}(methyl)carbamoyl)-7-methyl-1-(2-methylphenyl)-6-oxo-octahydropyrrolo{1,2-a}piperazine-7-carboxylate] | 4.17 |
| COC(=O)C1(C)CC2C(c3ccccc3C)N(C(=O)N(C)Cc3cc(C(F)(F)F)cc(C(F)(F)F)c3)CCN2C1=O (single isomer, unassigned) [Compound 14, Methyl 2-({[3,5-bis(trifluoromethyl)phenyl]methyl}(methyl)carbamoyl)-7-methyl-1-(2-methylphenyl)-6-oxo-octahydropyrrolo{1,2-a}piperazine-7-carboxylate] | 0.0692 |
| COC(=O)C1(C)CC2C(c3ccccc3C)N(C(=O)N(C)Cc3cc(C(F)(F)F)cc(C(F)(F)F)c3)CCN2C1=O (single isomer, unassigned) [Compound 15, Methyl 2-({[3,5-bis(trifluoromethyl)phenyl]methyl}(methyl)carbamoyl)-7-methyl-1-(2-methylphenyl)-6-oxo-octahydropyrrolo{1,2-a}piperazine-7-carboxylate] | 0.1 |
| Cc1ccccc1C1C2CCC(=O)N2CCN1C(=O)N(C)Cc1cc(C(F)(F)F)cc(C(F)(F)F)c1 (single isomer, unassigned) [Compound 17, N-{[3,5-bis(trifluoromethyl)phenyl]methyl}-N-methyl-1-(2-methylphenyl)-6-oxo-octahydropyrrolo[1,2-a]piperazine-2-carboxamide] | 28.2 |
| Cc1ccccc1C1C2CC(CO)C(=O)N2CCN1C(=O)N(C)Cc1cc(C(F)(F)F)cc(C(F)(F)F)c1 (single isomer, unassigned) [Compound 19, N-{[3,5-bis(trifluoromethyl)phenyl]methyl}-7-(hydroxymethyl)-N-methyl-1-(2-methylphenyl)-6-oxo-octahydropyrrolo[1,2-a]piperazine-2-carboxamide] | 3.72 |
| Cc1ccccc1C1C2CC(CO)C(=O)N2CCN1C(=O)N(C)Cc1cc(C(F)(F)F)cc(C(F)(F)F)c1 (single isomer, unassigned) [Compound 20, N-{[3,5-bis(trifluoromethyl)phenyl]methyl}-7-(hydroxymethyl)-N-methyl-1-(2-methylphenyl)-6-oxo-octahydropyrrolo[1,2-a]piperazine-2-carboxamide] | 1.66 |
| Cc1ccccc1C1C2CC(CO)C(=O)N2CCN1C(=O)N(C)Cc1cc(C(F)(F)F)cc(C(F)(F)F)c1 (single isomer, unassigned) [Compound 21, N-{[3,5-bis(trifluoromethyl)phenyl]methyl}-7-(hydroxymethyl)-N-methyl-1-(2-methylphenyl)-6-oxo-octahydropyrrolo[1,2-a]piperazine-2-carboxamide] | 0.0407 |
| Cc1ccccc1C1C2CC(C)(C(=O)N(C)C)C(=O)N2CCN1C(=O)N(C)Cc1cc(C(F)(F)F)cc(C(F)(F)F)c1 (single isomer, unassigned) [Compound 25, 2-N-{[3,5-bis(trifluoromethyl)phenyl]methyl}-2-N,7-N,7-N,7-tetramethyl-1-(2-methylphenyl)-6-oxo-octahydropyrrolo[1,2-a]piperazine-2,7-dicarboxamide] | 22.9 |
| Cc1ccccc1C1C2CC(CO)CN2CCN1C(=O)N(C)Cc1cc(C(F)(F)F)cc(C(F)(F)F)c1 (single isomer, unassigned) [Compound 27, N-{[3,5-bis(trifluoromethyl)phenyl]methyl}-7-(hydroxymethyl)-N-methyl-1-(2-methylphenyl)-octahydropyrrolo[1,2-a]piperazine-2-carboxamide; methanesulfonic acid salt] | 58.9 |

Now from value to compound:

| IC50 [nM] | SMILES |
| --- | --- |
| 1.07 | Cc1ccccc1C1C2CCC(=O)N2CCCN1C(=O)N(C)Cc1cc(C(F)(F)F)cc(C(F)(F)F)c1 (mixture of isomers) [Compound 7, N-{[3,5-bis(trifluoromethyl)phenyl]methyl}-N-methyl-1-(2-methylphenyl)-7-oxo-octahydro-1H-pyrrolo[1,2-a][1,4]diazepine-2-carboxamide] |
| 0.229 | Cc1ccccc1C1C2CCC(=O)N2CCN1C(=O)N(C)Cc1cc(C(F)(F)F)cc(C(F)(F)F)c1 (racemic) [Compound 16, N-{[3,5-bis(trifluoromethyl)phenyl]methyl}-N-methyl-1-(2-methylphenyl)-6-oxo-octahydropyrrolo[1,2-a]piperazine-2-carboxamide] |
| 6.46 | Cc1cc(C)cc(CN(C)C(=O)N2CCN3C(=O)CCC3C2c2ccccc2C)c1 (single isomer, unassigned) [Compound 1, N-[(3,5-dimethylphenyl)methyl]-N-methyl-1-(2-methylphenyl)-6-oxo-octahydropyrrolo[1,2-a]piperazine-2-carboxamide] |
| 7.41 | Cc1ccccc1C1C2CCC(=O)N2CCN1C(=O)N(C)Cc1cccc(C(F)(F)F)c1 (single isomer, unassigned) [Compound 5, N-methyl-1-(2-methylphenyl)-6-oxo-N-{[3-(trifluoromethyl)phenyl]methyl}-octahydropyrrolo[1,2-a]piperazine-2-carboxamide] |
| 12.9 | Cc1ccccc1[C@@H]1[C@H]2CCC(=O)N2CCN1C(=O)N(C)[C@H](C)c1cc(C(F)(F)F)cc(C(F)(F)F)c1 (single isomer, unassigned) [Compound 10] |
| 1.78 | COC(=O)C1(C)CC2C(c3ccccc3C)N(C(=O)N(C)Cc3cc(C(F)(F)F)cc(C(F)(F)F)c3)CCN2C1=O (single isomer, unassigned) [Compound 12, Methyl 2-({[3,5-bis(trifluoromethyl)phenyl]methyl}(methyl)carbamoyl)-7-methyl-1-(2-methylphenyl)-6-oxo-octahydropyrrolo{1,2-a}piperazine-7-carboxylate] |
| 0.0776 | Cc1ccccc1C1C2CC(CO)C(=O)N2CCN1C(=O)N(C)Cc1cc(C(F)(F)F)cc(C(F)(F)F)c1 (single isomer, unassigned) [Compound 23, N-{[3,5-bis(trifluoromethyl)phenyl]methyl}-7-(hydroxymethyl)-N-methyl-1-(2-methylphenyl)-6-oxo-octahydropyrrolo[1,2-a]piperazine-2-carboxamide] |
